“And” between values parts separate entries of the source, which are not always exact repeats. Equal values may be shown once.
test system: LXRα and/or LXRβ; test: LXR/LXRE co-transfection assay (luciferase reporter, CV-1 cells); format: cell-based, human; settings: IC50 or EC50 for LXR (LXRα and/or LXRβ, not distinguished), tested as described in Example 109, CV-1 cells
Summary of the method: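 Transient co-transfection of CV-1 cells with full-length human LXRα or LXRβ plus RXRα expression plasmids and an LXREx1-Tk-luciferase reporter; compounds (10 μM screen, ≤1% DMSO) incubated 20 h at 37 °C. Luminescence read after lysis; EC50/IC50 from 8-point half-log curves, efficacy relative to a high control or DMSO.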

SMILES	EC50
CC(C)(O)c1nn(-c2cccc(Cl)c2F)c(-c2ccc(-c3cccc(S(C)(=O)=O)c3)s2)c1Br [Example 1357, 2-[4-bromo-1-(3-chloro-2-fluorophenyl)-5-{5-[3-(methylsulfonyl)phenyl]-2-thienyl}-1H-pyrazol-3-yl]propan-2-ol]	< 1000 nM
CC(C)(O)c1nn(-c2ccc(-c3cccc(S(C)(=O)=O)c3)cc2Cl)c(-c2ccccc2Cl)c1Cl [Example 1423, 2-(4-chloro-1-(3-chloro-3′-(methylsulfonyl)biphenyl-4-yl)-5-(2-chlorophenyl)-1H-pyrazol-3-yl)propan-2-ol]	< 1000 nM
CC(C)(O)c1nn(-c2cnccc2C(F)(F)F)c(-c2ccc(-c3cccc(S(C)(=O)=O)c3)s2)c1Br [Example 1369, 2-(4-bromo-5-{5-[3-(methylsulfonyl)phenyl]-2-thienyl}-1-[4-(trifluoromethyl)pyridin-3-yl]-1H-pyrazol-3-yl)propan-2-ol]	< 1000 nM
COC(=O)c1cccc(-n2nc(C(=O)OC)cc2-c2ccc(-c3cccc(S(C)(=O)=O)c3)s2)c1 [Example 1220, methyl 1-{3-[(methyloxy)carbonyl]phenyl}-5-{5-[3-(methylsulfonyl)phenyl]-2-thienyl}-1H-pyrazole-3-carboxylate]	< 1000 nM
CC(=O)Nc1cccc(-c2ccc(-c3cc(C(C)(C)O)nn3-c3ccccc3Cl)cc2)c1 [Example 1311, N-{4′-[1-(2-chlorophenyl)-3-(1-hydroxy-1-methylethyl)-1H-pyrazol-5-yl]biphenyl-3-yl}acetamide]	1000 to 10000 nM
Cc1cc(-c2cccc(S(C)(=O)=O)c2)cnc1-n1nc(C(C)(C)O)c(Cl)c1-c1ccccc1Cl [Example 145, 2-(4-chloro-5-(2-chlorophenyl)-1-(3-methyl-5-(3-(methylsulfonyl)phenyl)pyridin-2-yl)-1H-pyrazol-3-yl)propan-2-ol]	< 1000 nM
O=C(O)CCNC(=O)c1ccc(-c2cc(C(F)(F)F)nn2-c2ccccc2Cl)cc1 [Example 1363, N-({4-[1-(2-chlorophenyl)-3-(trifluoromethyl)-1H-pyrazol-5-yl]phenyl}carbonyl)-beta-alanine]	1000 to 10000 nM
Cc1cc(-c2cccc(S(C)(=O)=O)c2)sc1-c1cc(C(C)(C)O)nn1-c1c(Cl)cccc1Cl [Example 137, 2-(1-(2,6-dichlorophenyl)-5-(3-methyl-5-(3-(methylsulfonyl)phenyl)thiophen-2-yl)-1H-pyrazol-3-yl)propan-2-ol]	< 1000 nM
CS(=O)(=O)c1cccc(-c2ccc(-c3cc(C4(C#N)CC4)nn3-c3ccccc3Cl)s2)c1 [Example 1188, 1-[1-(2-chlorophenyl)-5-{5-[3-(methylsulfonyl)phenyl]-2-thienyl}-1H-pyrazol-3-yl]cyclopropanecarbonitrile]	< 1000 nM
CS(=O)(=O)CCN1CCN(C(=O)c2ccc(-c3cc(C(F)(F)F)nn3-c3ccccc3Cl)cc2)CC1 [Example 1365, 1-({4-[1-(2-chlorophenyl)-3-(trifluoromethyl)-1H-pyrazol-5-yl]phenyl}carbonyl)-4-[2-(methylsulfonyl)ethyl]piperazine]	1000 to 10000 nM
Cc1cc(-c2cc(C(C)(C)O)nn2-c2c(Cl)cccc2Cl)ccc1-c1cccc(S(C)(=O)=O)c1 [Example 1398, 2-(1-(2,6-dichlorophenyl)-5-(2-methyl-3′-(methylsulfonyl)biphenyl-4-yl)-1H-pyrazol-3-yl)propan-2-ol]	1000 to 10000 nM
CC(C)CNC(=O)c1cc(-c2ccc(-c3cccc(S(C)(=O)=O)c3)cc2Cl)n(-c2c(Cl)cccc2Cl)n1 [Example 1389, 5-(3-chloro-3′-(methylsulfonyl)biphenyl-4-yl)-1-(2,6-dichlorophenyl)-N-isobutyl-1H-pyrazole-3-carboxamide]	< 1000 nM
CC(C)(O)c1nn(-c2ccc(-c3cccc(S(C)(=O)=O)c3)cc2Cl)c(-c2c(Cl)cccc2Cl)c1Cl [Example 1414, 2-(4-chloro-1-(3-chloro-3′-(methylsulfonyl)biphenyl-4-yl)-5-(2,6-dichlorophenyl)-1H-pyrazol-3-yl)propan-2-ol]	< 1000 nM

Other lines, results leading:

EC50	SMILES
< 1000 nM	CC(C)(O)c1cc(-c2ccc(-c3cccc(S(C)(=O)=O)c3)s2)n(-c2c(Cl)cncc2Cl)n1 [Example 126, 2-(1-(3,5-dichloropyridin-4-yl)-5-(5-(3-(methylsulfonyl)phenyl)thiophen-2-yl)-1H-pyrazol-3-yl)propan-2-ol]
1000 to 10000 nM	CN(Cc1ccsc1)Cc1cc(-c2ccc(-c3cccc(S(C)(=O)=O)c3)s2)n(-c2ccccc2Cl)n1 [Example 544, 1-[1-(2-chlorophenyl)-5-{5-[3-(methylsulfonyl)phenyl]-2-thienyl}-1H-pyrazol-3-yl]-N-methyl-N-(3-thienylmethyl)methanamine]
1000 to 10000 nM	Cc1ccc(-n2nc(C(F)(F)F)cc2-c2ccc(-c3cccc(S(C)(=O)=O)c3)s2)c(Cl)c1O [Example 1251, 2-chloro-6-methyl-3-[5-{5-[3-(methylsulfonyl)phenyl]-2-thienyl}-3-(trifluoromethyl)-1H-pyrazol-1-yl]phenol]
< 1000 nM	CC(O)(c1cc(-c2ccc(-c3cccc(S(C)(=O)=O)c3)s2)n(-c2ccccc2Cl)n1)C(F)(F)F (centres unmarked) [Example 1182, 2-[1-(2-chlorophenyl)-5-{5-[3-(methylsulfonyl)phenyl]-2-thienyl}-1H-pyrazol-3-yl]-1,1,1-trifluoropropan-2-ol]
< 1000 nM	CN1CCC(N(C)C(=O)c2cc(-c3ccc(-c4cccc(S(C)(=O)=O)c4)s3)n(-c3ccccc3Cl)n2)CC1 [Example 716, 1-(2-chlorophenyl)-N-methyl-N-(1-methylpiperidin-4-yl)-5-{5-[3-(methylsulfonyl)phenyl]-2-thienyl}-1H-pyrazole-3-carboxamide]
< 1000 nM	CC(C)S(=O)(=O)c1cccc(-c2ccc(-c3cc(C(F)(F)F)nn3-c3ncccc3C(F)(F)F)s2)c1 [Example 1169, 2-[5-(5-{3-[(1-methylethyl)sulfonyl)phenyl}-2-thienyl)-3-(trifluoromethyl)-1H-pyrazol-1-yl]-3-(trifluoromethyl)pyridine]
< 1000 nM	CC(C)(O)c1nn(-c2ccccc2C(F)(F)F)c(-c2ccc(-c3cccc(S(C)(=O)=O)c3)s2)c1Cl [Example 1350, 2-(4-chloro-5-{5-[3-(methylsulfonyl)phenyl]-2-thienyl}-1-[2-(trifluoromethyl)phenyl]-1H-pyrazol-3-yl)propan-2-ol]
< 1000 nM	CS(=O)(=O)c1cccc(-c2ccc(-c3cc(C(=O)N4CCCC4)nn3-c3ccccc3C(F)(F)F)s2)c1 [Example 1210, 5-{5-[3-(methylsulfonyl)phenyl]-2-thienyl}-3-(pyrrolidin-1-ylcarbonyl)-1-[2-(trifluoromethyl)phenyl]-1H-pyrazole]
< 1000 nM	CC(C)(O)c1cc(-c2ccc(-c3cccc(S(C)(=O)=O)c3)s2)n(Cc2ccc(F)cc2F)n1 [Example 1243, 2-(1-[(2,4-difluorophenyl)methyl]-5-{5-[3-(methylsulfonyl)phenyl]-2-thienyl}-1H-pyrazol-3-yl)propan-2-ol]
1000 to 10000 nM	COC(=O)c1cc(-c2cc(C(F)(F)F)nn2-c2ccccc2Cl)ccc1-c1cccc(S(C)(=O)=O)c1 [Example 1138, methyl 4-[1-(2-chlorophenyl)-3-(trifluoromethyl)-1H-pyrazol-5-yl]-3′-(methylsulfonyl)biphenyl-2-carboxylate]
1000 to 10000 nM	CS(=O)(=O)c1cccc(-c2ccc(-c3cc(C(=O)Nc4cccc(C(F)(F)F)c4)nn3-c3ccccc3Cl)s2)c1 [Example 1133, 1-(2-chlorophenyl)-5-{5-[3-(methylsulfonyl)phenyl]-2-thienyl}-N-[3-(trifluoromethyl)phenyl]-1H-pyrazole-3-carboxamide]
1000 to 10000 nM	CN(C)C1CCN(C(=O)c2cc(-c3ccc(-c4cccc(S(C)(=O)=O)c4)s3)n(-c3ccccc3Cl)n2)CC1 [Example 591, 1-{[1-(2-chlorophenyl)-5-{5-[3-(methylsulfonyl)phenyl]-2-thienyl}-1H-pyrazol-3-yl]carbonyl}-N,N-dimethylpiperidin-4-amine]
< 1000 nM	CS(=O)(=O)c1cc(-c2ccc(-c3cc(C(F)(F)F)nn3-c3ncccc3C(F)(F)F)s2)ccc1CO [Example 1149, [2-(methylsulfonyl)-4-(5-{3-(trifluoromethyl)-1-[3-(trifluoromethyl)pyridin-2-yl]-1H-pyrazol-5-yl}-2-thienyl)phenyl]methanol]
1000 to 10000 nM	CC(C)S(=O)(=O)c1cccc(-c2ccc(-c3cc(C(C)(C)O)nn3-c3ncccc3C(F)(F)F)s2)c1 [Example 1184, 2-{5-(5-{3-[(1-methylethyl)sulfonyl]phenyl}-2-thienyl)-1-[3-(trifluoromethyl)pyridin-2-yl]-1H-pyrazol-3-yl}propan-2-ol]
1000 to 10000 nM	CC(C)(O)c1cc(-c2ccc(-c3cccc(S(C)(=O)=O)c3)cc2)n(-c2cnccc2C(F)(F)F)n1 [Example 108, 2-(5-(3′-(methylsulfonyl)biphenyl-4-yl)-1-(4-(trifluoromethyl)pyridin-3-yl)-1H-pyrazol-3-yl)propan-2-ol]
1000 to 10000 nM	CN(CC(N)=O)C(=O)c1cc(-c2ccc(-c3cccc(S(C)(=O)=O)c3)s2)n(-c2ccccc2Cl)n1 [Example 724, N-(2-amino-2-oxoethyl)-1-(2-chlorophenyl)-N-methyl-5-{5-[3-(methylsulfonyl)phenyl]-2-thienyl}-1H-pyrazole-3-carboxamide]
< 1000 nM	NS(=O)(=O)c1cccc(-c2ccc(-c3cc(C(F)(F)F)nn3-c3cc(Cl)ccc3Oc3ccccc3)s2)c1 [Example 1198, 3-(5-{1-[5-chloro-2-(phenyloxy)phenyl]-3-(trifluoromethyl)-1H-pyrazol-5-yl}-2-thienyl)benzenesulfonamide]
1000 to 10000 nM and < 1000 nM	CS(=O)(=O)c1cccc(-c2ccc(-c3cc(C(F)(F)F)nn3-c3ccccc3Cl)cc2C(=O)O)c1 [Example 1139, 4-[1-(2-chlorophenyl)-3-(trifluoromethyl)-1H-pyrazol-5-yl]-3′-(methylsulfonyl)biphenyl-2-carboxylic acid]
1000 to 10000 nM	CS(=O)(=O)c1cccc(-c2ccc(-c3cc(C(F)(F)F)nn3-c3ccccc3Cl)cc2CN2CCOCC2)c1 [Example 1148]
